Columns and labels:
Conditions in all cases: 72 h
[1] = test system: myeloid leukemia patient primary cells Pat.6; experiment: cell viability (% survival relative to DMSO control); higher = less cytotoxic
Procedure, shortened: (§1)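 Mononuclear cells from patients with AML or CML were thawed, purified on Ficoll and placed in RPMI 1640 with 10% FBS at 10,000 cells/well on 384-well plates. The plates came pre-printed with 70 compounds at five tenfold concentrations spanning 1–10,000 nM, in duplicate, and cells were exposed for 72 h. CellTiter-Glo gave viability, scaled between DMSO wells and wells with 10 μM proteasome inhibitor. Where reported, area under the curve was obtained from log-logistic fits with four parameters using the drc and PharmacoGx R packages.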

[2] = test system: myeloid leukemia patient primary cells Pat.1; experiment: as above
Procedure, shortened: as §1

[3] = test system: myeloid leukemia patient primary cells Pat.4; experiment: as above
Procedure, shortened: as §1

[4] = test system: myeloid leukemia patient primary cells Pat.11; experiment: as above
Procedure, shortened: as §1

[5] = test system: myeloid leukemia patient primary cells Pat.5; experiment: as above
Procedure, shortened: as §1

[6] = test system: myeloid leukemia patient primary cells Pat.9; experiment: as above
Procedure, shortened: as §1

[7] = test system: myeloid leukemia patient primary cells Pat.13; experiment: as above
Procedure, shortened: as §1

[8] = test system: myeloid leukemia patient primary cells Pat.15; experiment: as above
Procedure, shortened: as §1

[9] = test system: myeloid leukemia patient primary cells Pat.12; experiment: as above
Procedure, shortened: as §1

[10] = test system: myeloid leukemia patient primary cells Pat.2; experiment: as above
Procedure, shortened: as §1

[11] = test system: myeloid leukemia patient primary cells Pat.14; experiment: as above
Procedure, shortened: as §1

[12] = test system: myeloid leukemia patient primary cells Pat.3; experiment: as above
Procedure, shortened: as §1

[13] = test system: myeloid leukemia patient primary cells Pat.7; experiment: as above
Procedure, shortened: as §1

[14] = test system: myeloid leukemia patient primary cells Pat.10; experiment: as above
Procedure, shortened: as §1

[15] = test system: myeloid leukemia patient primary cells Pat.8; experiment: as above
Procedure, shortened: as §1

[16] = test system: myeloid leukemia patient primary cells Pat.6; experiment: area under dose-response curve (viability, 1 nM-10 uM) (fraction (0-1)); higher = more sensitive
Description: (§2)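 AUC (0–1, higher = more sensitive) of the 5-point dose–response (1 nM–10 µM, 72 h, CellTiter-Glo) in primary AML/CML patient mononuclear cells. 0.030103 is the floor for inactive compounds.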

[17] = test system: myeloid leukemia patient primary cells Pat.1; experiment: as above
Description: as §2

[18] = test system: myeloid leukemia patient primary cells Pat.4; experiment: as above
Description: as §2

[19] = test system: myeloid leukemia patient primary cells Pat.11; experiment: as above
Description: as §2

[20] = test system: myeloid leukemia patient primary cells Pat.5; experiment: as above
Description: as §2

[21] = test system: myeloid leukemia patient primary cells Pat.9; experiment: as above
Description: as §2

[22] = test system: myeloid leukemia patient primary cells Pat.13; experiment: as above
Description: as §2

[23] = test system: myeloid leukemia patient primary cells Pat.15; experiment: as above
Description: as §2

[24] = test system: myeloid leukemia patient primary cells Pat.12; experiment: as above
Description: as §2

[25] = test system: myeloid leukemia patient primary cells Pat.2; experiment: as above
Description: as §2

[26] = test system: myeloid leukemia patient primary cells Pat.14; experiment: as above
Description: as §2

[27] = test system: myeloid leukemia patient primary cells Pat.3; experiment: as above
Description: as §2

[28] = test system: myeloid leukemia patient primary cells Pat.7; experiment: as above
Description: as §2

[29] = test system: myeloid leukemia patient primary cells Pat.10; experiment: as above
Description: as §2

[30] = test system: myeloid leukemia patient primary cells Pat.8; experiment: as above
Description: as §2

THP-1 [31] = experiment: cell viability (% survival relative to DMSO control, bortezomib = 0%); higher = less cytotoxic
Procedure, shortened: (§3)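 Seeding density for each of the 10 AML and 5 CML cell lines was titrated to the linear growth range. Cells went into 384-well plates pre-printed in duplicate with compounds at 1, 10, 100, 1000 or 10000 nM and were held for 72 h at 37 °C with 5% CO2. CellTiter-Glo luminescence then provided the readout. Percent survival is expressed relative to vehicle at 100% and a 10 µM positive control at 0%, averaged over duplicates.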

MV4-11 [32] = experiment: as above
Procedure, shortened: as §3

KCL-22 [33] = experiment: as above
Procedure, shortened: as §3

HEL [34] = experiment: as above
Procedure, shortened: as §3

Mono-Mac-6 [35] = experiment: as above
Procedure, shortened: as §3

HL-60 [36] = experiment: as above
Procedure, shortened: as §3

LAMA-84 [37] = experiment: as above
Procedure, shortened: as §3

SHI-1 [38] = experiment: as above
Procedure, shortened: as §3

NOMO-1 [39] = experiment: as above
Procedure, shortened: as §3

KU-812 [40] = experiment: as above
Procedure, shortened: as §3

MOLM-13 [41] = experiment: as above
Procedure, shortened: as §3

KG-1 [42] = experiment: as above
Procedure, shortened: as §3

K-562 [43] = experiment: as above
Procedure, shortened: as §3

ML-2 [44] = experiment: as above
Procedure, shortened: as §3

BV-173 [45] = experiment: as above
Procedure, shortened: as §3

THP-1 [46] = test system: THP-1
Procedure, shortened: (§4)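 Each of fifteen myeloid leukaemia cell lines was seeded in RPMI 1640 at a density titrated to its linear growth range. The cells were incubated for 72 h at 37 °C and 5% CO2 with compounds at five tenfold doses from 1 to 10,000 nM, in duplicate. After ATP luminescence was normalised to vehicle and to a positive control at 10 µM, four-parameter log-logistic curves were fitted. These curves gave the IC50.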

MV4-11 [47] = test system: MV4-11
Procedure, shortened: as §4

KCL-22 [48] = test system: KCL-22
Procedure, shortened: as §4

HEL [49] = test system: HEL
Procedure, shortened: as §4

Mono-Mac-6 [50] = test system: Mono-Mac-6
Procedure, shortened: as §4

HL-60 [51] = test system: HL-60
Procedure, shortened: as §4

LAMA-84 [52] = test system: LAMA-84
Procedure, shortened: as §4

SHI-1 [53] = test system: SHI-1
Procedure, shortened: as §4

NOMO-1 [54] = test system: NOMO-1
Procedure, shortened: as §4

KU-812 [55] = test system: KU-812
Procedure, shortened: as §4

MOLM-13 [56] = test system: MOLM-13
Procedure, shortened: as §4

KG-1 [57] = test system: KG-1
Procedure, shortened: as §4

K-562 [58] = test system: K-562
Procedure, shortened: as §4

ML-2 [59] = test system: ML-2
Procedure, shortened: as §4

BV-173 [60] = test system: BV-173
Procedure, shortened: as §4

CC(C)c1onc(-c2c(Cl)cccc2Cl)c1COc1ccc(/C=C/c2cccc(C(=O)O)c2)c(Cl)c1 [GW 4064]
cell viability [%]
Conditions | 1 nM | 10 nM | 100 nM | 1000 nM | 10000 nM
[1] | > 100 | 94.1 | 99.2 | 92.7 | 62.8
[2] | > 100 | 91.2 | 95.4 | 99.2 | 68.8
[3] | 81.1 | 92 | 96.4 | 91.2 | 64
[4] | 96.4 | 95.9 | 99.3 | 90.6 | 74.3
[5] | 80.1 | 49.1 | 67.6 | 2.27 | 0.265
[6] | 59.1 | 40.4 | 48.8 | 3.95 | < 0
[7] | 99.3 | 88.8 | 78.5 | 81.7 | 52.7
[8] | 92.6 | 95.2 | 95.5 | 98 | 89.7
[9] | 92.5 | 94.8 | 97.5 | 95.5 | 89.8
[10] | 98.1 | 94.5 | 84.4 | 96.8 | 92.7
[11] | 84.9 | 69.6 | 66 | 63.2 | 2.05
[12] | 83.5 | 78.7 | 86.3 | 16.1 | 0.177
[13] | 64.4 | 67.8 | 67.5 | 40.3 | < 0
[14] | 61.6 | 86.6 | 38.4 | 8.43 | 9.05
[15] | 91.6 | 88.4 | 64 | 90.2 | 81.9

Conditions | area under dose-response curve
[16] | 0.0544
[17] | < 0.0301
[18] | < 0.0301
[19] | < 0.0301
[20] | 0.413
[21] | 0.539
[22] | 0.0666
[23] | < 0.0301
[24] | < 0.0301
[25] | < 0.0301
[26] | 0.18
[27] | 0.323
[28] | 0.278
[29] | 0.473
[30] | < 0.0301

CCn1c(=O)/c(=C2\Sc3ccccc3N2C)s/c1=C\c1cccc[n+]1CC.[Cl-] [MKT-077]
cell viability [%]
Conditions | 1 nM | 10 nM | 100 nM | 1000 nM | 10000 nM
[1] | 86.5 | > 100 | > 100 | 97.5 | 76.2
[2] | 88.7 | 75.1 | 99.5 | 96.7 | 79.3
[3] | 92.1 | 92.2 | 99.6 | 83.8 | 61.6
[4] | 96.9 | 95.6 | 99.3 | > 100 | 88.3
[5] | 2.39 | 85 | 95.2 | 69.1 | 27.4
[6] | 7.21 | 82.2 | 86.3 | 78.1 | 48
[7] | 85.3 | 83.5 | 92.6 | 88.8 | 72.1
[8] | 86.1 | 93.1 | 87.2 | 98.8 | 82.1
[9] | 95.4 | 95.7 | 97 | 97.5 | 91.4
[10] | 93.4 | 99.4 | 98.1 | 99.9 | 85.4
[11] | 49.3 | 84.2 | > 100 | 100 | 61.8
[12] | 46.3 | 84.2 | > 100 | > 100 | 80.4
[13] | 60.4 | 97.6 | 87.8 | 78.2 | 63.4
[14] | 35.1 | 83.7 | > 100 | 54.6 | 67.1
[15] | 71.5 | 87.3 | 95.1 | 82.5 | 67.2

Conditions | area under dose-response curve
[16] | 0.0306
[17] | < 0.0301
[19] | < 0.0301
[20] | 0.119
[21] | 0.0402
[22] | 0.0334
[23] | < 0.0301
[24] | < 0.0301
[25] | < 0.0301
[26] | < 0.0301
[27] | < 0.0301
[28] | 0.0538
[30] | 0.0466

CC(C)(O)CNc1nc(Nc2ccnc(C(F)(F)F)c2)nc(-c2cccc(C(F)(F)F)n2)n1 [Enasidenib]
cell viability [%]
Conditions | 1 nM | 10 nM | 100 nM | 1000 nM | 10000 nM
BV-173 [45] | 101 | 90.7 | 121 | 98.4 | 90
HEL [34] | 106 | 106 | 123 | 111 | 85.6
HL-60 [36] | 118 | 108 | 118 | 99.1 | 106
K-562 [43] | 93.1 | 98.3 | 98.3 | 95.2 | 82.5
KCL-22 [33] | 89.2 | 102 | 113 | 97.4 | 93.6
KG-1 [42] | 103 | 95 | 107 | 92.8 | 117
KU-812 [40] | 92.4 | 97.2 | 103 | 90 | 93.2
LAMA-84 [37] | 101 | 94.8 | 99.1 | 104 | 103
ML-2 [44] | 109 | 100 | 113 | 97.3 | 68.8
MOLM-13 [41] | 83.9 | 90.8 | 98.5 | 101 | 103
MV4-11 [32] | 101 | 88.9 | 112 | 103 | 81.1
Mono-Mac-6 [35] | 94.8 | 100 | 113 | 107 | 126
NOMO-1 [39] | 98.3 | 98.8 | 107 | 93.6 | 92.9
SHI-1 [38] | 109 | 105 | 114 | 113 | 109
THP-1 [31] | 101 | 103 | 114 | 93.5 | 97.5

Conditions | IC50 (cell viability) [µM]
BV-173 [60] | > 10
HEL [49] | > 10
HL-60 [51] | > 10
K-562 [58] | > 10
KCL-22 [48] | > 10
KG-1 [57] | > 10
KU-812 [55] | > 10
LAMA-84 [52] | > 10
ML-2 [59] | > 10
MOLM-13 [56] | > 10
MV4-11 [47] | > 10
Mono-Mac-6 [50] | > 10
NOMO-1 [54] | > 10
SHI-1 [53] | > 10
THP-1 [46] | > 10
